In article PMC11039737, “Exploring a repurposed candidate with dual hIDO1/hTDO2 inhibitory potential for anticancer efficacy identified through pharmacophore-based virtual screening and in vitro evaluation” (Scientific Reports, 2024):

Legend:
[1] = biological target: T1, human Tryptophan 2,3-dioxygenase 2 (hTDO2) (Homo sapiens, UniProt P48775); assay: TDO2 Fluorogenic Inhibitor Screening Assay Kit (Catalog # […]), enzymatic dose response; assay type: biochemical
T1 construct: gene TDO2

[2] = biological target: T2, human Indoleamine 2,3-dioxygenase 1 (hIDO1) (Homo sapiens, UniProt P14902); assay: IDO1 Inhibitor Screening Assay Kit (Catalog # […]), enzymatic dose response; assay type: biochemical
T2 construct: gene IDO1
T2 sequence (P14902 whole entry): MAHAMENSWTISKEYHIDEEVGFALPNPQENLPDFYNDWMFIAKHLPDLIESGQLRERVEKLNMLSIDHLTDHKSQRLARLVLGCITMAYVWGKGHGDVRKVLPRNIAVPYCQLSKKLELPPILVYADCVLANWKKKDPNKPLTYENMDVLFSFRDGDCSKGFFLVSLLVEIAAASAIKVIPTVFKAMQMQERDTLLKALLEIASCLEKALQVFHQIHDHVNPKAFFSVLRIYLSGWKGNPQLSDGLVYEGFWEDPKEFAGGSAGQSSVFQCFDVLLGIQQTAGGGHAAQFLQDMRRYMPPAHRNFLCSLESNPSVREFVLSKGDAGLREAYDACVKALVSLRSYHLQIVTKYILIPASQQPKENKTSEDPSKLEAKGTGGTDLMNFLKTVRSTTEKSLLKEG

T1 sequence (P48775 whole entry): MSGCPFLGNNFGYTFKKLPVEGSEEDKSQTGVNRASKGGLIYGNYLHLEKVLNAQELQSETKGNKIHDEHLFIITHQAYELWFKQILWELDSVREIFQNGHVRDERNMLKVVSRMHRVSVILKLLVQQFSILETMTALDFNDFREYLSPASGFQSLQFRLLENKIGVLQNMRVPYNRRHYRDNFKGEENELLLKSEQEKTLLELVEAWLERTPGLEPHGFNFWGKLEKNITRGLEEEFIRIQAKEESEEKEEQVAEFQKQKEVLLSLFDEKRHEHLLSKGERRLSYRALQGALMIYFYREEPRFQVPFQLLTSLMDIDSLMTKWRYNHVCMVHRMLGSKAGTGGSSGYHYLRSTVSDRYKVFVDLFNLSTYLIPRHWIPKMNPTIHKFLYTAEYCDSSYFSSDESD

IC50 [1]: 588 ± 27 nM
IC50 [2]: 351 ± 16 nM
SMILES: O=C(O)C[C@H](O)C[C@H](O)/C=C/c1c(C2CC2)nc2ccccc2c1-c1ccc(F)cc1 [Pitavastatin]
